# From US20110313156A1 (BOEHRINGER INGELHEIM INTERNATIONAL GMBH, priority 2008, published 2011)
# Biological target: T1, His6-PDK1 (aa 52-556) (Homo sapiens, UniProt O15530)
# T1 construct: 15 μL His6-PDK1 (aa 52-556) 3.33 ng/well); host or cells: baculovirus-infected insect cells
# T1 sequence (O15530 52-556): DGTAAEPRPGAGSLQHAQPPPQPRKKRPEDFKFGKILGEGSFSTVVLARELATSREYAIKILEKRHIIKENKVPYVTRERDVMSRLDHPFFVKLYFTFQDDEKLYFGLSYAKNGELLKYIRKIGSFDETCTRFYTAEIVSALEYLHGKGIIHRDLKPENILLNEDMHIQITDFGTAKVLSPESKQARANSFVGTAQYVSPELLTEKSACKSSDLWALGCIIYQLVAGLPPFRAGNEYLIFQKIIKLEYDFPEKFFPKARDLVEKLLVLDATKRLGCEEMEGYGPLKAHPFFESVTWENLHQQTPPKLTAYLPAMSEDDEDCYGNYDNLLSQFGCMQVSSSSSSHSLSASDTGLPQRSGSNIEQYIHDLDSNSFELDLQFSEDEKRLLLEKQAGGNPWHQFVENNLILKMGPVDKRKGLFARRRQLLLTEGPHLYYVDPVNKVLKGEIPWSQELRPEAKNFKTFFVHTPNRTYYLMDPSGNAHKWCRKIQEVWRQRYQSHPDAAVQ
# Experiment: PDK1 kinase assay III (with Tween 20)
# Type: biochemical
# Conditions: compound at 10 μM; PDK1 kinase assay III (values without asterisk); read-out: % CTL (residual activity of the enzyme relative to DMSO control)
# Summary of the method: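 Started with ATP, incubated 90 min at ambient temperature, then stopped with phosphoric acid. Asterisked values come from assay II (24 h or 5 min incubation).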
row,Compound,remaining activity at 10 µM [%]
1,"N#Cc1ccc(Nc2ncc3cc(C#CCNC(=O)c4cncn(Cc5ccc(F)c(F)c5)c4=O)ccc3n2)cc1 [III-44, N-(3-{2-[(4-cyanophenyl)amino]quinazolin-6-yl}prop-2-yn-1-yl)-1-(3,4-difluorobenzyl)-6-oxo-1,6-dihydropyrimidine-5-carboxamide]",30.4
2,"Cc1c(C(=O)NCC#Cc2ccc3nc(Nc4ccc(C#N)cc4)ncc3c2)c(=O)n(Cc2ccc(F)c(F)c2)n1C [III-45, N-(3-{2-[(4-cyanophenyl)amino]quinazolin-6-yl}prop-2-yn-1-yl)-2-(3,4-difluorobenzyl)-1,5-dimethyl-3-oxo-2,3-dihydro-1H-pyrazole-4-carboxamide]",19.8
3,"COC(=O)c1ccc(Nc2ncc3cc(C#CCNC(=O)c4c(C)n(C)n(Cc5ccc(F)c(F)c5)c4=O)ccc3n2)cc1 [III-46, methyl-4-({6-[3-({[2-(3,4-difluorobenzyl)-1,5-dimethyl-3-oxo-2,3-dihydro-1H-pyrazol-4-yl]carbonyl}amino)prop-1-yn-1-yl]quinazolin-2-yl}amino)benzoate]",21
4,Cc1c(C(=O)NCC#Cc2ccc3nc(Nc4ccc(C(=O)O)cc4)ncc3c2)c(=O)n(Cc2ccc(F)c(F)c2)n1C [III-47],13.3
5,CNc1ncc2cc(/C=C/CNC(=O)c3cncn(Cc4ccc(F)c(F)c4)c3=O)cc(OCCN)c2n1 [III-59],18.3
6,NCCOc1cc(/C=C/CNC(=O)c2cncn(Cc3ccc(F)c(F)c3)c2=O)cc2cnc(Nc3ccccc3)nc12 [III-63],14.2
7,Cc1c(C(=O)NCC#Cc2cc(OCCCN)c3nc(Nc4ccc(N5CCOCC5)cc4)ncc3c2)c(=O)n(Cc2ccc(F)c(F)c2)n1C [III-74],13
8,Cc1c(C(=O)NCC#Cc2cc(OC3CCNC3)c3nc(Nc4ccc(N5CCOCC5)cc4)ncc3c2)c(=O)n(Cc2ccc(F)c(F)c2)n1C (centres unmarked) [III-76],11.8
9,Cc1cccc(Nc2ncc3cc(C#CCNC(=O)c4c(C)n(C)n(Cc5ccc(F)c(F)c5)c4=O)ccc3n2)c1 [III-79],20
10,Cc1c(C(=O)NCC#Cc2ccc3nc(Nc4ccc(C(=O)N(C)CCCN(C)C)cc4)ncc3c2)c(=O)n(Cc2ccc(F)c(F)c2)n1C [III-90],13.3
11,COCCCN(C)C(=O)c1ccc(Nc2ncc3cc(C#CCNC(=O)c4cncn(Cc5ccc(F)c(F)c5)c4=O)ccc3n2)cc1 [III-104],15.8
12,O=C(NCCO)c1ccc(Nc2ncc3cc(C#CCNC(=O)c4cncn(Cc5ccc(F)c(F)c5)c4=O)ccc3n2)cc1 [III-115],13.5
13,"CN(C)Cc1ccc(Nc2ncc3cc(/C=C/CNC(=O)c4cncn(Cc5ccc(F)c(F)c5)c4=O)ccc3n2)cc1 [IV-3, 1-(3,4-difluorobenzyl)-N-{(2E)-3-[2-({4-[(dimethylamino)methyl]phenyl}amino)-quinazolin-6-yl]prop-2-en-1-yl}-6-oxo-1,6-dihydropyrimidine-5-carboxamide]",11.1
14,"Cc1c(C(=O)NC/C=C/c2ccc3nc(Nc4ccccc4)ncc3c2)c(=O)n(Cc2ccc(F)c(F)c2)n1C [IV-5, 2-(3,4-difluorobenzyl)-1,5-dimethyl-3-oxo-N-{(2E)-3-[2-(phenylamino)quinazolin-6-yl]prop-2-en-1-yl}-2,3-dihydro-1H-pyrazole-4-carboxamide]",13.6
15,"COc1cc(/C=C/CNC(=O)c2cncn(Cc3ccc(F)c(F)c3)c2=O)cc2cnc(Nc3ccc(CN(C)C)cc3)nc12 [IV-18, 1-(3,4-difluorobenzyl)-N-{(2E)-3-[2-({4-[(dimethylamino)methyl]phenyl}amino)-8-methoxyquinazolin-6-yl]prop-2-en-1-yl}-6-oxo-1,6-dihydropyrimidine-5-carboxamide]",15
16,"Cc1c(C(=O)NC/C=C/c2ccc3nc(Nc4ccc(CN(C)C)cc4)ncc3c2)c(=O)n(Cc2ccccc2)n1C [IV-19, 2-benzyl-N-{(2E)-3-[2-({4-[(dimethylamino)methyl]phenyl}amino)quinazolin-6-yl]prop-2-en-1-yl}-1,5-dimethyl-3-oxo-2,3-dihydro-1H-pyrazole-4-carboxamide]",12.6

# Results, then the compound that gave them:
row,remaining activity at 10 µM [%],Compound
1,14.3,"Cc1c(C(=O)NC/C=C/c2ccc3nc(Nc4ccc(CN(C)C)cc4)ncc3c2)c(=O)n(Cc2cc(F)c(F)c(F)c2)n1C [IV-20, N-{(2E)-3-[2-({4-[(dimethylamino)methyl]phenyl}amino)quinazolin-6-yl]prop-2-en-1-yl}-1,5-dimethyl-3-oxo-2-(3,4,5-trifluorobenzyl)-2,3-dihydro-1H-pyrazole-4-carboxamide]"
2,11.2,"Cc1c(C(=O)NC/C=C/c2ccc3nc(Nc4ccc(CN(C)C)cc4)ncc3c2)c(=O)n(Cc2ccc(F)c(F)c2)n1C [IV-21, 2-(3,4-difluorobenzyl)-N-{(2E)-3-[2-({4-[(dimethylamino)methyl]phenyl}amino)-quinazolin-6-yl]prop-2-en-1-yl}-1,5-dimethyl-3-oxo-2,3-dihydro-1H-pyrazole-4-carboxamide]"
3,19.7,"CN(C)Cc1ccc(Nc2ncc3cc(/C=C/CNC(=O)c4cn(C)c(=O)n(Cc5ccc(F)c(F)c5)c4=O)ccc3n2)cc1 [IV-22, 3-(3,4-difluorobenzyl)-N-{(2E)-3-[2-({4-[(dimethylamino)methyl]phenyl}amino)-quinazolin-6-yl]prop-2-en-1-yl}-1-methyl-2,4-dioxo-1,2,3,4-tetrahydropyrimidine-5-carboxamide]"
4,16.8,"CN(C)Cc1ccc(Nc2ncc3cc(CCCNC(=O)c4cncn(Cc5ccc(F)c(F)c5)c4=O)ccc3n2)cc1 [IV-23, 1-(3,4-difluorobenzyl)-N-{3-[2-({4-[(dimethylamino)methyl]phenyl}amino)quinazolin-6-yl]propyl}-6-oxo-1,6-dihydropyrimidine-5-carboxamide]"
5,15.7,"O=C(NCc1ccc(Nc2ncnc3[nH]c(-c4ccccc4)cc23)cc1)c1cncn(Cc2ccc(F)c(F)c2)c1=O [IV-24, 1-(3,4-difluorobenzyl)-6-oxo-N-{4-[(6-phenyl-7H-pyrrolo[2,3-d]pyrimidin-4-yl)amino]benzyl}-1,6-dihydropyrimidine-5-carboxamide]"
6,33.5,"Cc1c(C(=O)NCc2ccc(Nc3ncnc4[nH]c(-c5ccccc5)cc34)cc2)c(=O)n(Cc2ccc(F)c(F)c2)n1C [IV-25, 2-(3,4-difluorobenzyl)-1,5-dimethyl-3-oxo-N-{4-[(6-phenyl-7H-pyrrolo[2,3-d]-pyrimidin-4-yl)amino]benzyl}-2,3-dihydro-1H-pyrazole-4-carboxamide]"
7,20.9,"CN(C)Cc1ccc(-c2cc3c(Nc4ccc(CNC(=O)c5cncn(Cc6ccc(F)c(F)c6)c5=O)cc4)ncnc3[nH]2)cc1 [IV-26, 1-(3,4-difluorobenzyl)-N-{4-[(6-{4-[(dimethylamino)methyl]phenyl}-7H-pyrrolo[2,3-d]pyrimidin-4-yl)amino]benzyl}-6-oxo-1,6-dihydropyrimidine-5-carboxamide]"
8,43.9,"O=C(NCc1ccc(Nc2ncnc3[nH]ccc23)cc1)c1cncn(Cc2ccc(F)c(F)c2)c1=O [IV-27, 1-(3,4-difluorobenzyl)-6-oxo-N-[4-(7H-pyrrolo[2,3-d]pyrimidin-4-ylamino)benzyl]-1,6-dihydropyrimidine-5-carboxamide]"
9,14.7,"CN(C)Cc1ccc(Nc2ncc3cc(N4CC[C@@H](NC(=O)c5cncn(Cc6ccc(F)c(F)c6)c5=O)C4)ccc3n2)cc1 [IV-29, 1-(3,4-difluorobenzyl)-N-{(3R)-1-[2-({4-[(dimethylamino)methyl]phenyl}amino)-quinazolin-6-yl]pyrrolidin-3-yl}-6-oxo-1,6-dihydropyrimidine-5-carboxamide]"
10,13.7,"CN(C)Cc1ccc(Nc2ncc3cc(/C=C(\F)CNC(=O)c4cncn(Cc5ccc(F)c(F)c5)c4=O)ccc3n2)cc1 [IV-30, 1-(3,4-difluorobenzyl)-N-{(2Z)-3-[2-({4-[(dimethylamino)methyl]phenyl}amino)-quinazolin-6-yl]-2-fluoroprop-2-en-1-yl}-6-oxo-1,6-dihydropyrimidine-5-carboxamide]"
11,20.2,"CN(C)Cc1ccc(Nc2ncc3cc(N4CC(NC(=O)c5cncn(Cc6ccc(F)c(F)c6)c5=O)C4)ccc3n2)cc1 [IV-31, 1-(3,4-difluorobenzyl)-N-{1-[2-({4-[(dimethylamino)methyl]phenyl}amino)quinazolin-6-yl]azetidin-3-yl}-6-oxo-1,6-dihydropyrimidine-5-carboxamide]"
12,19,"CC(/C=C/c1ccc2nc(Nc3ccc(CN(C)C)cc3)ncc2c1)NC(=O)c1cncn(Cc2ccc(F)c(F)c2)c1=O (centres unmarked) [IV-32, 1-(3,4-difluorobenzyl)-N-{(3E)-4-[2-({4-[(dimethylamino)methyl]phenyl}amino)-quinazolin-6-yl]but-3-en-2-yl}-6-oxo-1,6-dihydropyrimidine-5-carboxamide]"
13,14.9,"CN(C)Cc1ccc(Nc2ncc3c(F)c(/C=C/CNC(=O)c4cncn(Cc5ccc(F)c(F)c5)c4=O)ccc3n2)cc1 [IV-33, 1-(3,4-difluorobenzyl)-N-{(2E)-3-[2-({4-[(dimethylamino)methyl]phenyl}amino)-5-fluoroquinazolin-6-yl]prop-2-en-1-yl}-6-oxo-1,6-dihydropyrimidine-5-carboxamide]"
